Paper PMC10611578, “Aβ1-6A2V(D) peptide, effective on Aβ aggregation, inhibits tau misfolding and protects the brain after traumatic brain injury” (Molecular Psychiatry, 2023)
Square brackets hold non-standard residues; d marks the D form. Peptide text beside a SMILES is read from it.

How the values were obtained:
[1] = MALDI-TOF imaging brain biodistribution after intranasal administration, TBI mice; type: in vivo, mouse (3xTg-AD
Description: The Aβ1-6A2V(D) was administered to 3xTg-AD and 24-month-old WT TBI underwent mice by repeated intranasal administration as described in [39]. In brief, mice were acclimatized for 2 weeks before the surgery and the treatment. Aβ1-6A2V(D) was administered to mice at 50 mg/kg body weight (b.w.) (about 5 µL/nostril/mouse, 10 µL total/each treatment session/mouse) starting at 10 min post-TBI and every 48 h up to 6 days post-injury, using a 20 µL pipette and gel loading pipette tip. At each treatment session, the mice were held in place for 30 seconds after the first 5 µL administration and then left free to move in a cage for 30 seconds before administering the remaining treatment/vehicle. Weight was assessed before each intranasal administration. Neurological functions were monitored longitudinally and plasma levels of neurofilament light (NfL) were assessed at sacrifice as detailed in the Supplementary information (sections ‘Behavioural test’ and ‘Plasmatic neurofilament light’). Seven days after surgery, the mice were sacrificed, the brain was removed, and ipsilateral cortical areas were dissected out, immediately frozen on dry ice, and stored at −80 °C until their use for biochemical and C. elegans studies. At 4 h, 24 h, 48 h, and 72 h after surgery, a subset of mice (n = 3) was sacrificed, and their brains were removed, frozen immediately in liquid nitrogen, and stored at −80 °C until matrix-assisted laser desorption/ionization (MALDI)-imaging analysis. The investigators were blinded to treatment allocation during the assessment of the results.
Fig. 3 Biodistribution of Aβ1-6A2V(D) in brain parenchyma of 3xTg-AD injured mice after intranasal administration. A Mice were subjected to TBI, randomly distributed into two groups, and treated intranasally 10 min post-injury with either a single dose of Aβ1-6A2V(D) (50 mg/kg b.w.) or saline (vehicle). MALDI-imaging analyses were performed 4-h, 24-h, 48-h, and 72-h post-administration. B Representative images of Aβ1-6A2V(D) biodistribution assessed by MALDI-TOF and imaged as a heatmap (red > Aβ1-6A2V(D) concentration > deep purple).
Studies were carried out as described by Catania et al. to confirm that the intranasal administration of Aβ1-6A2V(D) to injured mice allows the efficient distribution of the peptide in the brain tissue. Brains from injured 3xTg-AD mice were used to prepare […] sections (14 μm thickness) at -20°C in a cryostat. Fourteen µm coronal sections of fresh-frozen brains were cut and serially collected from bregma +0.8 mm to -2.7 mm at 700 µm intervals for MALDI analysis and Cresyl violet staining to pair Aβ1-6A2V(D) biodistribution to anatomical structures. […]

[2] = target: T1, BACE (Homo sapiens, UniProt P56817); assay: BACE1 Inhibitor Screening Kit in vitro; type: biochemical; details: BACE1 Inhibitor Screening Kit ab283408, 60 min at 37 °C, fluorescence Ex/Em 345/500 nm; read-out: IC50 for inhibition of BACE activity in vitro
T1 construct: purchased Abcam ab283408
T1 sequence (P56817 46-501, species assumed): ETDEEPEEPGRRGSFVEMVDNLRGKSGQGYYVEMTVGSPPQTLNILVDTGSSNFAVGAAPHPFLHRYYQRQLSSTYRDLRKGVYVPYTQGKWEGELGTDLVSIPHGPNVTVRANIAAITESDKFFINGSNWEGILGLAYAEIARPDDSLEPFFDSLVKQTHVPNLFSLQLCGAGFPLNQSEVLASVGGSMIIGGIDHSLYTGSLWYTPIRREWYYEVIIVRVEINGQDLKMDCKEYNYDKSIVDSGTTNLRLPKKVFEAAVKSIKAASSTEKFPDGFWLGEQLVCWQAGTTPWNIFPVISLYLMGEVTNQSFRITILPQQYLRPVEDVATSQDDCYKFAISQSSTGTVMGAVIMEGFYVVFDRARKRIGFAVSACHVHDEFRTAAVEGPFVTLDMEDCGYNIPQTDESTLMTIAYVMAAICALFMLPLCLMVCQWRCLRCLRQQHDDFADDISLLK
Description: The ability of Aβ1-6A2V(D) to inhibit BACE activity was measured in vitro as described in the BACE1 Inhibitor Screening Kit ab283408 (Abcam, Cambridge, UK). Increasing concentrations of Aβ1-6A2V(D) were employed. Fluorescence was read for 60 min at 37°C at Ex/Em= 345/500 nm using a spectrophotometer (Infinite M200, Tecan, Männedorf, Switzerland). BACE activity was measured in the ipsilateral cortex of 3xTg-AD TBI mice treated with or without the peptide using the β-Secretase Activity Fluorometric Assay Kit MAK237 (Sigma Aldrich, St. Louis, USA). The protein concentration of the samples was analyzed using the BCA assay, as previously described. The samples were diluted to obtain a final concentration of 25 µg proteins/50 µL and then processed according to the kit instructions. Fluorescence was read at Ex/Em = 355/495 nm.
Supplementary Figure 7. Effect of Aβ1-6A2V(D) on the BACE activity. (A) Dose-dependent inhibitory effect of Aβ1-6A2V(D) on BACE activity determined in vitro. (B) BACE activity determined in the brain homogenates of 3xTg-AD TBI mice (N = 3) treated (TBI Aβ1-6A2V(D)) or not (TBI vehicle) with 50 mg/kg b.w. Aβ1-6A2V(D) and sacrificed 24 h after the last administration. Data are mean ± SD, one-way ANOVA, and Bonferroni’s post hoc test.

[3] = test system: C. elegans; details: in vivo; cited from earlier work
[4] = ref [16]; cited from earlier work
[5] = test system: tau (P301L mouse brain homogenate); assay: Western blot of total tau level in P301L brain lysate; type: biochemical, human tau with P301L mutation, JNPL3 mice; details: 50 µM, 2 h at 25 °C, 30 µg protein/100 µL, PBS pH 7.4, DAKO/actin band; mean ± SD, N = 3, p < 0.05
From the text: Male JNPL3 mice expressing 0N4R human tau with the P301L mutation (P301L) were obtained from Taconic Biosciences (New York, USA) (Tau Model 2508). Controls were non-transgenic (Non-tg) male mice with the same mixed C57BL/6, DBA/2, SW genetic background as P301L mice. Triple transgenic mice harboring human PS1(M146 V), APP(SW), and MAPT(P301L) transgenes, referred to as 3xTg-AD, were kindly provided by Dr. Oddo [34]. Male and female C57BL/6 J mice, referred to as wild type (WT), were purchased from Envigo (Italy).
Fig. 2 Effect of Aβ1-6A2V-TAT(D) on the toxicity caused in C. elegans by misfolded tau in P301L and TBI brain homogenates. A Brains from P301L mice were homogenized in 10 mM PBS, pH 7.4, and given to worms alone or in the presence of Aβ1-6A2V-TAT(D). B Worms were administered with brain homogenate (30 µg protein/100 worms/100 µL) in the absence or presence of Aβ1-6A2V-TAT(D) (0-200 µM). […] E Representative western blotting showing the total level of tau and tau quantification expressed as the mean volume of the DAKO band immunoreactivity/actin band. […] The reaction was then stopped, and samples were analyzed by western blot. […]
Lysates from brain homogenates of P301L mice (30 µg protein/100 µL) incubated for 2 h at 25°C with 50 µM Aβ1-6A2V-TAT(D), 50 µM Aβ1-6A2V(D), 50 µM TAT or 10 mM PBS, pH 7.4, were analyzed by immunoblotting using 10% SDS-PAGE gel and Western blotting analysis. […]

[6] = test system: Aβ soluble protofibrils; details: ref [3]; cited from earlier work
From the text: Alzheimer’s disease (AD) is a double proteinopathy characterized by amyloid-β (Aβ) and tau pathology and is the most common dementia in older adults. Despite enormous efforts that have been made in the last few decades to find effective therapy, there are still few weapons available to fight this disease. […] Since the approval of aducanumab, ...

## CC(C)[C@@H](NC(=O)[C@H](N)CC(=O)O)C(=O)N[C@H](CCC(=O)O)C(=O)N[C@H](Cc1ccccc1)C(=O)N[C@H](CCCNC(=N)N)C(=O)N[C@H](Cc1c[nH]cn1)C(=O)O [Aβ1-6A2V(D)] (H-[dD][dV][dE][dF][dR][dH]-OH)
[1]; intranasal 50 mg/kg b.w., 24 h after administration
  Peptide level in brain areas close to the contusion site, 24 h: high levels of peptide still detectable 24 h after the administration
[1]; single intranasal dose 50 mg/kg b.w. 10 min post-injury, 4-h and 24-h
  Presence of peptide in brain regions: present in the cerebral cortex, hippocampus, caudate-putamen, and cerebellum
[1]; single intranasal dose 50 mg/kg b.w. 10 min post-injury, 72 h after administration
  Peptide level in brain, 72 h: not detectable
[1]; single intranasal dose 50 mg/kg b.w. 10 min post-injury, high levels persisting, although low, up to 48 h
  Peptide level in ipsi- and contra-lateral hemispheres, up to 48 h: high Aβ1-6A2V(D) levels were detected in the ipsi- and contra-lateral hemispheres that persisted, although at low levels, up to 48 h
[2]
  IC50: 126 nM
[3]
  Passage through the worm's membrane: only in the presence of the TAT sequence, Aβ1-6A2V(D) can pass through the worm’s membrane
[4]
  Brain distribution after single intranasal administration, AD mouse: distributed in the AD mouse brain

## GRKKRRQRRR [TAT, TAT48-56(D) (…), reference compound]
[5]
  Total tau protein level in P301L brain homogenate: but not TAT alone, significantly reduced the tau protein level

B1: Lecanemab: a humanized monoclonal antibody that binds with high affinity to Aβ soluble protofibrils (antibody, chains of the INN, looked up, V domains shown)
VH: EVQLVESGGGLVQPGGSLRLSCSASGFTFSSFGMHWVRQAPGKGLEWVAYISSGSSTIYYGDTVKGRFTISRDNAKNSLFLQMSSLRAEDTAVYYCAREGGYYYGRSYYTMDYWGQGTTVTVSS
VL: DVVMTQSPLSLPVTPGAPASISCRSSQSIVHSNGNTYLEWYLQKPGQSPKLLIYKVSNRFSGVPDRFSGSGSGTDFTLRISRVEAEDVGIYYCFQGSHVPPTFGPGTKLEIK
[6]
  Binding affinity to Aβ soluble protofibrils: binds with high affinity to Aβ soluble protofibrils
